Data published in patent publication US10774082B2, “Quinazoline compound” (Astellas Pharma Inc., priority 2017, dated 2020).

Legend:
[1] = biological target: T1, KRAS G12C/SOS/c-Raf complex (Homo sapiens, UniProt P01116, G12C); assay: KRAS G12C/SOS/c-Raf complex formation inhibitory action (TR-FRET); assay type: biochemical; conditions: one hour at room temperature, read-out: IC50 (KRAS G12C/SOS/c-Raf complex formation inhibition)
T1 construct: Biotinylated AviTag-KRAS G12C (amino acid region 1-185, GDP)
T1 sequence (P01116 1-185 isoform P01116-2 G12C, one chain of several): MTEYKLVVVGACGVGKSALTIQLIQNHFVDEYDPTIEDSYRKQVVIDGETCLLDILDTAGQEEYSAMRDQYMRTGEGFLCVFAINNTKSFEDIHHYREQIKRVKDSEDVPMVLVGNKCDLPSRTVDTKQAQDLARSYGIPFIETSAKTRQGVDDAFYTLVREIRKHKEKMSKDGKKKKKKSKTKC
In short: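 Biotin-AviTag KRAS G12C (1-185, GDP-bound) was mixed with compound (4,000 to 4 nM stock dilutions), SOS (564-1049), GST-c-Raf (51-131) and GTP in pH 7.4 HEPES/NaCl/MgCl2/Tween buffer for 1 h at room temperature. Complex formation was read by TR-FRET with Eu-streptavidin and ULight-anti-GST (ex 337 nm, em 620/665 nm).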

[2] = test system: ERK phosphorylation (Thr 202/Tyr 204) in NCI-H1373 cells; assay: ERK phosphorylation inhibitory action in NCI-H1373 (Cell ELISA); assay type: cell-based, Human; conditions: Homo sapiens, NCI-H1373, 2 h, NCI-H1373 cells, cultured for 2 hours, 100% = 1 μM Trametinib; read-out: IC50 (ERK phosphorylation inhibition)
Description: Evaluation of ERK Phosphorylation Inhibitory Action with Respect to Human KRAS G12C Mutation Positive Non-Small Cell Lung Cancer Strain NCI-H1373
The ERK phosphorylation inhibitory action by the test compound was evaluated by measuring phosphorylation of 202th threonine (Thr 202) and 204th tyrosine (Tyr 204) of ERK on the downstream of the KRAS signal by Cell ELISA.
NCI-H1373 cells (ATCC, CRL-5866) were seeded in 384 well plates (Greiner bio-one) at 36 μL/well each so as to be 2×10^4 cell per well. Cell culture was performed under the conditions of temperature of 37° C. in the presence of 5% CO2 by using RPMI 1640 medium (Sigma-Aldrich Co. LLC) containing 10% fetal bovine serum (GE Life Sciences).
The next day, the test compounds (six points in a range of final concentration 1,000 nM to 0.3 nM), final concentration 1 μM of Trametinib (GlaxoSmithKline Inc.; MEK inhibitor) as a positive control, and DMSO which is a solvent of the test compound as a negative control were diluted 100-fold with fresh medium, 4 μL each was added to each well, and then cultured for 2 hours. Immediately after culturing, 30 μL of 30% glyoxal solution (Wako: 40% glyoxal diluted with Phosphate Buffered Saline (PBS; Wako)) was added to each well, and the cells were left to stand at room temperature for one hour to be fixed. Thereafter, the supernatant was removed by centrifuging the plate (110×g for 7 seconds, unless otherwise stated below under the same conditions), and 20 μL of PBS containing 0.1% Triton X-100 (Amersham Biosciences Corp.) was added to each well. After being left to stand at room temperature for 10 minutes, the supernatant was removed by centrifugation, and the same operation was repeated. Next, 20 μL of PBS containing 0.5% SDS (Invitrogen) was added to each well, and the mixture was left to stand at room temperature for 30 minutes, and then centrifuged to remove the supernatant. Subsequently, 20 μL of a blocking solution (ODYSSEY Blocking Buffer; LI-COR Biosciences) was added to each well, and left to stand at room temperature for one hour. The supernatant was removed by centrifugation, and 10 μL of a blocking solution prepared by diluting ERK (Thr 202/Tyr 204) of a phosphorylation antibody (Cell Signaling Technology, Inc.) as a primary antibody to be ½, 500 amount with respect to a stock solution was added to each well and was left to stand at 4° C. for overnight.
The next day, a reaction liquid is removed by centrifuging the plate, 20 μL of 0.05% Tween-20-containing PBS (Thermo Scientific; 20×PBS Tween-20 diluted 20-fold with ion exchanged water) was added to each well, and each well was washed by removing the supernatant by centrifugation. Washing was performed three times in total. After washing, 10 μL of a blocking solution prepared by diluting IRDye 800CW Goat anti-Rabbit IgG (LI-COR Biosciences) as a secondary antibody to be 1/1,000 amount with respect to a stock solution was added to each well and was left to stand at room temperature for one hour. The reaction liquid was removed by centrifuging the plate, and each well was washed three times with 0.05% Tween-20-containing PBS in the same manner as after primary antibody reaction. The centrifugation after the third wash was 171×g for 17 seconds. After removal of the cleaning solution, the plate was left to air dry at room temperature for three hours or more and the fluorescent signal at 800 nm was measured by Aerius (LI-COR Biosciences).
When a signal value at the time of adding DMSO was set as 0% inhibition, and a signal value at the time of adding 1 μM of Trametinib was set as 100% inhibition, a value of 50% inhibition (IC50) was calculated through Sigmoid-Emax model nonlinear regression analysis.

NCI-H1373 cells = assay: Anchorage-independent cell proliferation inhibitory action, NCI-H1373 spheroid three-dimensional culture; assay type: cell-based, Human; conditions: Homo sapiens, NCI-H1373, 144 h, NCI-H1373 spheroid, six days, CellTiter Glo; read-out: IC50 (anchorage-independent cell proliferation inhibition)
Description: Evaluation of Anchorage-Independent Cell Proliferation Inhibitory Action with Respect to Human KRAS G12C Mutation Positive Non-Small Cell Lung Cancer Strain NCI-H1373
An anchorage-independent cell proliferation inhibitory action by the test compound was evaluated by a spheroid three-dimensional culture.
NCI-H1373 cells were seeded in cell low adsorption U bottom 384 well plates (Prime Surface: Sumitomo Bakelite Co., Ltd.) at 36 μL/well each so as to be 5×10^2 cell per well. The cell culture was performed under the same conditions as Test example 2.
The next day, the test compounds (six points in a range of final concentration 1,000 nM to 0.3 nM) and DMSO which is a solvent of the test compound as a negative control were diluted 100-fold with fresh medium, 4 μL each was added to each well. After culturing at 37° C. in the presence of 5% CO2 for six days, 20 μL of CellTiter Glo or to CellTiter Glo 2.0 (Promega Corporation) was added to each well. After stirring for one hour at room temperature using a plate mixer (FINEPCR), an emission signal was measured with ARVO X3 (PerkinElmer Co., Ltd.).
When a signal value in a DMSO treatment was set as 0% inhibition, and a signal value in cell-free medium only was set as 100% inhibition, a value of 50% inhibition (IC50) was calculated through Sigmoid-Emax model nonlinear regression analysis.

| IC50 [1] [nM] | IC50 [2] [nM] | IC50 (NCI-H1373 cells) [nM] | SMILES |
| --- | --- | --- | --- |
| 50 | 12 | 17 | C=CC(=O)N1CC2(CCN(c3nc(OC4CCCN(C)CC4)nc4c(OCC(F)(F)F)c(-c5c(C)ccc6[nH]ncc56)c(C=C)cc34)CC2)C1 (stereo not drawn) [Example 69] |
| 79 | 18 | 71 | C=CC(=O)N1CC2(CCN(c3nc(OC4CCN(C(=O)N(C)C)CC4)nc4c(OCC(F)(F)F)c(-c5c(C)ccc6[nH]ncc56)c(C=C)cc34)CC2)C1 [Example 70] |
| 40 | 14 | 10 | C=CC(=O)N1CC2(CCN(c3nc(OCCCN(C)C)nc4c(OCC(F)(F)F)c(-c5c(C)ccc6[nH]ncc56)c(C=C)cc34)CC2)C1 [Example 71] |
| 41 | 14 | 24 | C=CC(=O)N1CC2(CCN(c3nc(OC4CCN(C5CCN(C)CC5)CC4)nc4c(OCC(F)(F)F)c(-c5c(C)ccc6[nH]ncc56)c(C=C)cc34)CC2)C1 [Example 72] |
| 44 | 15 | 28 | C=CC(=O)N1CC2(CCN(c3nc(OC4CCN(CCN5CCCC5)CC4)nc4c(OCC(F)(F)F)c(-c5c(C)ccc6[nH]ncc56)c(C=C)cc34)CC2)C1 [Example 73] |
| 50 | 15 | 21 | C=CC(=O)N1CC2(CCN(c3nc(OC4CCN(C)CC4)nc4c(OCC(C)C)c(-c5c(C)ccc6[nH]ncc56)c(C=C)cc34)CC2)C1 [Example 74] |
| 51 | 15 | 43 | C=CC(=O)N1CC2(CCN(c3nc(OC4CCS(=O)(=O)CC4)nc4c(OCC(F)(F)F)c(-c5c(C)ccc6[nH]ncc56)c(C=C)cc34)CC2)C1 [Example 75] |
| 43 | 15 | 25 | C=CC(=O)N1CC2(CCN(c3nc(N4CCCN(C)CC4)nc4c(OCC(F)(F)F)c(-c5c(C)ccc6[nH]ncc56)c(C=C)cc34)CC2)C1 [Example 76] |
| 56 | 16 | 32 | C=CC(=O)N1CC2(CCN(c3nc(OC4CCN(CCOC)CC4)nc4c(OCC(F)(F)F)c(-c5c(C)ccc6[nH]nc(Cl)c56)c(C=C)cc34)CC2)C1 [Example 77] |
| 47 | 16 | 24 | C=CC(=O)N1CC2(CCN(c3nc(OC4CCN(CCOC)CC4)nc4c(OCC(F)(F)F)c(-c5c(C)cc(F)c6[nH]ncc56)c(C=C)cc34)CC2)C1 [Example 78] |
| 57 | 16 | 43 | C=CC(=O)N1CC2(CCN(c3nc(OC4CCN(CCOC)CC4)nc4c(OCC(F)(F)C(F)(F)F)c(-c5c(C)ccc6[nH]ncc56)c(C=C)cc34)CC2)C1 [Example 79] |
| 166 | 16 | 75 | C=CC(=O)N1CC2(CCN(c3nc(OC4CCN(CC(F)(F)F)CC4)nc4c(OCC(F)(F)F)c(-c5c(C)ccc6[nH]ncc56)c(C=C)cc34)CC2)C1 [Example 80] |
| 41 | 16 | 26 | C=CC(=O)N1CC2(CCN(c3nc(OC4CCN(CCS(C)(=O)=O)CC4)nc4c(OCC(F)(F)F)c(-c5c(C)ccc6[nH]ncc56)c(C=C)cc34)CC2)C1 [Example 81] |
| 108 | 16 | 51 | C=CC(=O)N1CC2(CCN(c3nc(OC4CCN(CCCOC(F)(F)F)CC4)nc4c(OCC(F)(F)F)c(-c5c(C)ccc6[nH]ncc56)c(C=C)cc34)CC2)C1 [Example 83] |
| 56 | 17 | 27 | C=CC(=O)N1CC2(CCN(c3nc(OCCCN4CCOCC4)nc4c(OCC)c(-c5c(C)ccc6[nH]ncc56)c(C=C)cc34)CC2)C1 [Example 85] |
| 72 | 12 | 37 | C=CC(=O)N1CC2(CCN(c3nc(OC4CCN(S(C)(=O)=O)CC4)nc4c(OCC(F)(F)F)c(-c5c(C)ccc6[nH]ncc56)c(C=C)cc34)CC2)C1 [Example 86] |
| 39 | 18 | 35 | C=CC(=O)N1CC2(CCN(c3nc(OC4CCN(CCOC)CC4)nc4c(OCC(F)(F)F)c(-c5cccc6[nH]ncc56)c(C5CC5)cc34)CC2)C1 [Example 87] |
| 148 | 19 | 90 | C=CC(=O)N1CC2(CCN(c3nc(OC4CCN(C(=O)OC)CC4)nc4c(OCC(F)(F)F)c(-c5c(C)ccc6[nH]ncc56)c(C=C)cc34)CC2)C1 [Example 88] |
| 53 | 19 | 40 | C=CC(=O)N1CC2(CCN(c3nc(N4CCN(C)C(CC)C4)nc4c(OCC(F)(F)F)c(-c5c(C)ccc6[nH]ncc56)c(C=C)cc34)CC2)C1 (stereo not drawn) [Example 89] |
| 55 | 22 | 53 | C=CC(=O)N1CC2(CCN(c3nc(OC4CCN(C(C)=O)CC4)nc4c(OCC(F)(F)F)c(-c5c(C)ccc6[nH]ncc56)c(C=C)cc34)CC2)C1 [Example 90] |
| 42 | 22 | 39 | C=CC(=O)N1CC2(CCN(c3nc(CC4CCN(CCOC)CC4)nc4c(OCC(F)(F)F)c(-c5c(C)ccc6[nH]ncc56)c(C=C)cc34)CC2)C1 [Example 91] |
| 37 | 22 | 32 | C=CC(=O)N1CC2(CCN(c3nc(OC4CCN(CC)CC4)nc4c(OC)c(-c5c(Cl)ccc6[nH]ncc56)c(C=C)cc34)CC2)C1 [Reference example 1, reference compound] |
| 35 | 17 | 22 | C=CC(=O)N1CC2(CCN(c3nc(OC[C@@H]4CCCN4C)nc4c(OC)c(-c5c(C)ccc6[nH]ncc56)c(C=C)cc34)CC2)C1 [Reference example 2, reference compound] |
